Results published in US8106196B2, “Dihydropyrimidine compounds and their uses in manufacture of a medicament for treatment and prevention of viral diseases” (Beijing Molecule Science and Technology Co., Ltd, priority 2007, dated 2012).

Legend:
HBV DNA = assay: Antiviral activity: inhibition of HBV DNA in supernatant of HepG 2.2.15 cells (dot blot hybridization); format: cell-based, hepatitis B virus (HBV); conditions: for IC50: Hepatitis B virus, HepG2.2.15, 192 h, HepG 2.2.15 cells, 8 days incubation, hepatitis B-specific band reduced by 50% vs untreated sample, read-out: IC50 (half-maximum inhibitory concentration, HBV DNA); for SI: selectivity index, from TC50 and IC50 in HepG 2.2.15 cells
Experimental: The antiviral activity of the compounds according to the present invention was determined by the methods described by Sells et al. (M. A. Sells, M. L. Chen, g. Acs, Proc. Natl. Acad. Sci., 1987, 84, 1005-1009) and Korba et al., (B. E. Korba, J. L. Gerin, Antiviral Research, 1992, 19. 55-70).
(§1) The antiviral tests were carried out in 96-well microtiter plates. Only growth medium and HepG 2.2.15 cells were added to the first vertical row of the plate as a blank control.
(§2) Stock solutions of the test compounds (50 mM) were first dissolved in DMSO, and further dilutions were prepared in the growth medium of HepG 2.2.15 cell. The compounds according to the present invention, usually in a test concentration of 100 μg/ml (1st test concentration), were pipetted into each well of the second vertical test row of the microtiter plate and subsequently diluted with growth medium plus 2% of foetal calf serum (volume 25 μl) by 2 fold each time, up to 2^10-fold.
225 μl of a HepG 2.2.15 cell suspension (5×10^4 cells/ml) in growth medium plus 2% foetal calf serum were then added to each well of the 96-well microtiter plate.
The test mixture was incubated at 37° C., 5% CO2 for 4 days. The supernatant was subsequently siphoned off and discarded, and 225 μl of freshly prepared growth medium were added to each well. The compounds according to the present invention were added again in a volume 25 μl. The mixture were incubated from another 4 days.
The supernatants were subsequently harvested and siphoned in vacuum onto 96-well dot blot chambers covered with a nylon membrane (in accordance with the instructions of the manufacturer). […]
The viral DNA of the treated HepG 2.2.15 cells on the nylon filter membrane was usually determined using non-radioactive digoxigenin-labelled hepatitis B-specific DNA probes which were in each case labelled with digoxigenin, purified and used for hybridization in accordance with the instructions of the manufacturer.
Briefly speaking, the prehybridization and hybridization were carried out in 5×SSC, 1× blocking agent, 0.1% N-lauroylsacosine, 0.02% SDS and 100 μg of DNA from herring sperm. […] The filler membrane was subsequently washed and the antibodies against digoxigenin of HBV DNA were determined.
The digoxigenin-labeled DNA was detected immunologically in accordance with the instructions of the manufacturer.
Briefly speaking, the filler membrane were washed and prehybridized with a blocking agent (in accordance with the instructions of the manufacturer). […] The chemiluminescent signals of the Hepatitis B-specific DNA were measured by exposing of the filters to an X-ray film (incubation for 10 minutes to 2 hours depending on the signal strength) to determine the half-maximum inhibitory concentration (IC50). […]

[1] = Cytotoxicity in HepG 2.2.15 cells (cell morphology under microscope after 8 days, Reed & Muench); format: cell-based; conditions: human, pathological changes after 8 days, read-out: TC50 (half-maximum toxic concentration)
Experimental: as §1
as §2, with “2^10-fold. […]” for “2^10-fold.”
Substances-induced cytotoxic or cytostatic changes in HepG 2.2.15 cells were determined as changes in the cell morphology, for example under an optical microscope. […] The average degree of the pathological change and percent inhibition at each concentration were calculated, and a half-maximum toxic concentration (TC50) and a maximum non-toxic concentration TC0 were determined according to Reed & Muench methods. […]
The cytotoxicity and antiviral activity of the compounds according to the present invention were determined by the methods as described above, and the results were shown in Table 1.

| SMILES | IC50 (HBV DNA) [µM] | SI (HBV DNA) | CC50 at 8 days [1] [µM] |
| --- | --- | --- | --- |
| COC(=O)C1=C(C)NC(c2cccs2)=NC1c1ccc(F)cc1Cl (stereo not drawn) [Example 1, methyl 2-(thien-2-yl)-4-(2-chloro-4-fluorophenyl)-6-methyl-1,4-dihyropyrimidin-5-carboxylate] | 0.007 | >10^5 | 1100 |
| COC(=O)C1=C(C)NC(c2cccs2)=NC1c1ccccc1 (stereo not drawn) [Example 4, methyl 2-(thien-2-yl)-4-phenyl-6-methyl-1,4-dihyropyrimidin-5-carboxylate] | 29.6 | 3.56 | 105 |
